Assay: Stability of [99mTc(CO)3(OH2)3]+ prepared with the KF kit
Type: physicochemical
Details: prepared in the presence of KF
Experimental: Commercially available kits contain sodium tartrate to prevent premature decomposition of [^99mTc(CO)3(OH2)3]^+. Thinking that the chelate was interfering with the fluoride mediated complexation reaction, a kit in which KF was substituted for tartrate was prepared.

[^99mTc(CO)3(OH2)3]^+
time stable: greater than 6 h

— patent US20060062725A1, “Methods for preparing metal-carborane complexes for radioimaging and radiotherapy” (priority 2004, published 2006)
